Laboratory results published in patent publication US5536737A, “Compound having prolyl endopeptidase inhibitory activity and pharmaceutical use thereof” (Japan Tobacco Inc., priority 1992, dated 1996).
Read-outs that look alike come from different tables or passages of the source.

What was measured:
Format in all cases: biochemical
cathepsin B = biological target: T1, cathepsin B (Bos taurus, UniProt P07688); test: Cathepsin B-inhibitory activity; settings: concentration 0.1 μM; bovine spleen, pH 6.0
T1 construct: purchased Sigma; host or cells: bovine spleen
Method: (§1) Inhibitory activity against various proteases
(§2) The compound of the present invention having predetermined concentrations was tested for the specificity of the inhibitory activity against various proteases according to a known test method.
(§3) The methods for the determination of the inhibitory activity against various proteases other than prolyl endopeptidase and the method for calculating the inhibition are as follows.
Determination of cathepsin B-inhibitory activity
In completely the same manner as above, respective fluorescence (f1, f2 and f3) was determined using a 100 mM sodium phosphate buffer (pH 6.0; containing 1.33 mM EDTA Na2) as a buffer for determination, a 0.02 μM solution of cathepsin B (derived from bovine spleen, Sigma) in the same buffer as an enzyme solution and a 200 μM solution of 7-(N-benzyloxy-carbonyl-phenylaranyl-arginyl)-4-methylcouma-rinamide (Peptid Institute, Inc.) in the same buffer as a substrate solution.
(§4) Using the fluorescence x1, x2 and x3 wherein x is b, c, d, e or f, measured in the above-mentioned manner, the inhibition against various proteases was calculated by the following formula: [formula]

leucine aminopeptidase = test: Leucine aminopeptidase-inhibitory activity; settings: concentration 0.1 μM; swine kidney, pH 8.0
Method: as §1, §2, §3
Determination of leucine aminopeptidase-inhibitory activity
In completely the same manner as above, respective fluorescence (d1, d2 and d3) was determined using a 50 mM Tris-HCl buffer (pH 8.0) as a buffer for determination, a 0.2 μM solution of leucine aminopeptidase (derived from swine kidney, Sigma) in the same buffer as an enzyme solution and a 200 μM solution of 7-leucyl-4-methyl-coumarinamide (Peptide Institute, Inc.) in the same buffer as a substrate solution.
as §4

prolyl endopeptidase = biological target: T2, prolyl endopeptidase (Rattus norvegicus, UniProt O70196); test: Prolyl endopeptidase-inhibitory activity; settings: for inhibition at 0.1 µM: read-out: inhibition of prolyl endopeptidase
T2 construct: prolyl endopeptidase extracted from rat brain; from tissue; host or cells: rat brain
T2 sequence (O70196 1-710): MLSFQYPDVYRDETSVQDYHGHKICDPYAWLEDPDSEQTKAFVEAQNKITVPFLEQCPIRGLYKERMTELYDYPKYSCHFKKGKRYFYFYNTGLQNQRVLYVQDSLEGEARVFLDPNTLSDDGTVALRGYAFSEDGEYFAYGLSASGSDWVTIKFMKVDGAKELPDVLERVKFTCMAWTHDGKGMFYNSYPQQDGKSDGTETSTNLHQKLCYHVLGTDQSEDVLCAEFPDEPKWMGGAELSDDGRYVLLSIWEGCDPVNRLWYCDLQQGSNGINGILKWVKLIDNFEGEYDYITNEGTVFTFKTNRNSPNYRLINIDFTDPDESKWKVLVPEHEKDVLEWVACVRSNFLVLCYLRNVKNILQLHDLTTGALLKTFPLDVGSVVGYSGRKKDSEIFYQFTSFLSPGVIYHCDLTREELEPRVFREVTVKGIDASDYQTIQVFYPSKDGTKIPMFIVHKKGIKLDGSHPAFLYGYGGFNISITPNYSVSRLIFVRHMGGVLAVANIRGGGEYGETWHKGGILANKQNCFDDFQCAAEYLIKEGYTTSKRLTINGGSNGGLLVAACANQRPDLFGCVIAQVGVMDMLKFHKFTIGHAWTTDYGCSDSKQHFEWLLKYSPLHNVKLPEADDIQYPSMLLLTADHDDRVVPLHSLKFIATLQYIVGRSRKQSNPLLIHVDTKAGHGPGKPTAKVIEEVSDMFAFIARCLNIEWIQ
Method: Prolyl endopeptidase-inhibitory activity
A mixture of a 0.1M potassium-sodium phosphate buffer (pH 7.0, 2675 μl ), a solution of the compound of the present invention in a 0.1M potassium-sodium phosphate buffer (pH 7.0, 100 μl ) and a solution of prolyl endopeptidase extracted from rat brain in a 25 mM sodium phosphate buffer (100 μl ) [123 unit/1, pH 6.8, containing 1 mM dithiothreitol and 0.5 mM EDTA, prepared by the method described in J. Neurochem., 35, 527 (1980)] was preincubated at 30° C. for 30 minutes. Thereto was added a 0.2 mM solution of 7-(N-succinyl-glycyl-prolyl)-4methylcoumarinamide (Peptide Institute, INC.) in a 0.1M potassium-sodium phosphate buffer (pH 7.0, 125 μl), and the mixture was incubated at 30° C. for 1 hour. The reaction mixture was immersed in ice (0° C.) to terminate the reaction, and the fluorescence (a1) was determined ten minutes later (excitation at 370 nm and emission at 440 nm). Concurrently, an experiment wherein, in the above system, the prolyl endopeptidase solution was substituted for a 25 mM sodium phosphate buffer (pH 6.8, containing 1 mM dithiothreitol and 0.5 mM EDTA) and an experiment wherein the solution of the compound of the present invention was substituted for a 0.1M potassium-sodium phosphate buffer (pH 7.0) were conducted. Each fluorescence (a2 and a3) was determined [See Tanpakushitsu Kakusan Koso, 29, 127 (1984)]. The prolyl endopeptidase inhibition was calculated by the following formula, and IC50, a concentration necessary for 50% inhibition, was estimated by using a semilogarithmic graph paper. [formula]

trypsin = biological target: T3, trypsin (Bos taurus, UniProt P00760); test: Trypsin-inhibitory activity; settings: concentration 0.1 μM; bovine pancreas, pH 8.0
T3 construct: purchased Sigma; host or cells: bovine pancreas
T3 sequence (P00760 24-246): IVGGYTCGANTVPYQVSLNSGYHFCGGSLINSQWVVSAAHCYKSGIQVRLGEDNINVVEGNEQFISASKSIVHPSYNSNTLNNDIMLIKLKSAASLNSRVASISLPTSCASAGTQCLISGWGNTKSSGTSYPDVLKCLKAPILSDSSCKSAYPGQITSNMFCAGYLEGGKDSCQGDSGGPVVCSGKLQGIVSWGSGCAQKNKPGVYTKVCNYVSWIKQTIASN
Method: as §1, §2, §3
Determination of trypsin-inhibitory activity
In the present invention, a 50 mM Tris-HCI buffer (pH 8.0) was used as a buffer for measurement.
To a mixture of the above-mentioned buffer (850 μl ), a solution of the compound of the present invention in the same buffer (50 μl ) and a 0.02 μM solution of trypsin (derived from bovine pancreas, Sigma) in the same buffer (50 μl ) was added a 200 μM solution of 7-(prolyl-phenylaranyl-arginyl)-4methylcoumarinamide (Peptide Institute, Inc.) in the same buffer (50 μl), and the mixture was incubated at 30° C. for 1 hour. The reaction mixture was immersed in ice (0° C.) to terminate the reaction, and the fluorescence (b1) was determined 1 hour later (excitation at 370 nm and emission at 440 nm). Concurrently, an experiment wherein, in the system above, the trypsin solution was substituted for a buffer and an experiment wherein the solution of the compound of the present invention was substituted for said buffer were conducted. Each fluorescence (b2 and b3) was determined.
as §4

elastase = biological target: T4, elastase (Sus scrofa, UniProt P00772); test: Elastase-inhibitory activity; settings: concentration 0.1 μM; swine pancreas, pH 8.5
T4 construct: purchased Sigma; host or cells: swine pancreas
T4 sequence (P00772 27-266): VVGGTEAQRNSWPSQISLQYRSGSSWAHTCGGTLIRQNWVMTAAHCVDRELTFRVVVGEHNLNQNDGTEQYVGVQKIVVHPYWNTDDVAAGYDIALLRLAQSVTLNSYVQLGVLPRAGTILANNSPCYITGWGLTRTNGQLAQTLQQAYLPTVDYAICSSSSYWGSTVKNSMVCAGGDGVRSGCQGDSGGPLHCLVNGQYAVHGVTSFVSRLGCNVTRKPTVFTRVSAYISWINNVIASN
Method: as §1, §2, §3
Determination of elastase-inhibitory activity
In completely the same manner as above, respective fluorescence (e1, e2 and e3) was determined using a 1 mM Tris-HCl buffer (pH 8.5) as a buffer for determination, a 0.2 μM solution of elastase (derived from swine pancreas, Sigma) in the same buffer as an enzyme solution and a 200 μM solution of 7-(N-succinyl-aranyl-prolyl-aranyl)-4-methylcoumarinamide (Peptide Institute, Inc.) in the same buffer as a substrate solution.
as §4

chymotrypsin = biological target: T5, chymotrypsin (Bos taurus, UniProt P00766); test: Chymotrypsin-inhibitory activity; settings: concentration 0.1 μM; bovine pancreas, pH 8.0
T5 construct: purchased Sigma; host or cells: bovine pancreas
Method: as §1, §2, §3
Determination of chymotrypsin-inhibitory activity
In completely the same manner as above, respective fluorescence (c1, c2 and c3) was determined using a 50 mM Tris-HCl buffer (pH 8.0) as a buffer for determination, a 0.2 μM solution of chymotrypsin (derived from bovine pancreas, Sigma) in the same buffer as an enzyme solution, and a 200 μM solution of 7-(N-succinyl-leucyl-leucyl-varyl-tyrosyl)-4-methylcoumarinamide (Peptide Institute, Inc.) in the same buffer as a substrate solution.
as §4

| SMILES | inhibition at 0.1 µM (cathepsin B) | inhibition of leucine aminopeptidase (leucine aminopeptidase) | IC50 (prolyl endopeptidase) | inhibition at 0.1 µM (prolyl endopeptidase) | inhibition at 0.1 µM (trypsin) | inhibition at 0.1 µM (elastase) | inhibition at 0.1 µM (chymotrypsin) | inhibition at 0.1 µM (prolyl endopeptidase; concentration 0.1 μM) |
| --- | --- | --- | --- | --- | --- | --- | --- | --- |
| Cc1ccc(CNC(=O)N2CCC[C@H]2C(=O)N2CCC[C@H]2C(=O)COC(=O)c2ccccc2)cc1 [Compound 8, (S)-2-[[(S)-2-(Benzoyloxyacetyl)-1-pyrrolidinyl]carbonyl]-N-[(4methylphenyl)methyl]-1-pyrrolidinecarboxamide] | 0% | 0% | 0.4 nM | 100% | 0% | 0% | 0% |  |
| COc1ccc(CNC(=O)N2CCC[C@H]2C(=O)N2CCC[C@H]2C(=O)CO)cc1 [Compound 6, (S)-2-[[(S)-2-(Hydroxyacetyl)-1-pyrrolidinyl]carbonyl]-N-[(4methoxyphenyl)methyl]-1-pyrrolidinecarboxamide] | 0% | 0% | 0.7 nM | 100% | 0% | 0% | 0% |  |
| O=C(CO)[C@@H]1CCCN1C(=O)[C@@H]1CSCN1C(=O)OCc1ccccc1 [Compound 14, (R)-4-[[(S)-2-(Hydroxyacetyl)-1-pyrrolidinyl]carbonyl]-3(phenylmethyloxycarbonyl)thiazolidine] |  |  | 1 nM |  |  |  |  |  |
| O=C(CO)[C@@H]1CCCN1C(=O)[C@@H]1CCCN1C(=O)NCc1ccccc1 [Compound 2, (S)-2-[[(S)-2-(Hydroxyacetyl)-1-pyrrolidinyl]carbonyl]-N-(phenylmethyl)-1-pyrrolidinecarboxamide] | 0% | 0% |  |  | 0% | 0% | 0% | 98% |
| CCCCCCCC(=O)N1CCC[C@H]1C(=O)N1CCC[C@H]1C(=O)COC(C)=O [Compound 12, (S)-2-[[(S)-2-(Acetoxyacetyl)-1-pyrrolidinyl]carbonyl]-1-octanoylpyrrolidine] |  |  | 2 nM |  |  |  |  |  |
| CC(C)(C)C(=O)OCC(=O)[C@@H]1CCCN1C(=O)[C@@H]1CCCN1C(=O)NCc1ccccc1 [Compound 4, (S)-N-(Phenylmethyl)-2-[[(S)-2-(pivaloyloxyacetyl)-1-pyrrolidinyl]carbonyl]-1-pyrrolidinecarboxamide] | 0% | 0% | 1 nM | 97% | 0% | 0% | 0% |  |
| CCCCCCCC(=O)N1CCC[C@H]1C(=O)N1CCC[C@H]1C(=O)CO [Compound 11, (S)-2-[[(S)-2-(Hydroxyacetyl)-1-pyrrolidinyl]carbonyl]-1-octanoylpyrrolidine] |  |  | 0.4 nM |  |  |  |  |  |
| O=C(CO)[C@@H]1CCCN1C(=O)[C@@H]1CCCN1C(=O)NCCc1ccccc1 [Compound 5, (S)-2-[[(S)-2-(Hydroxyacetyl)-1-pyrrolidinyl]carbonyl]-N-(2-phenylethyl)-1-pyrrolidinecarboxamide] | 0% | 0% | 0.3 nM | 100% | 0% | 0% | 0% |  |
| O=C(OCC(=O)[C@@H]1CCCN1C(=O)[C@@H]1CCCN1C(=O)NCc1ccccc1)c1ccccc1 [Compound 3] | 0% | 0% | 0.1 nM | 98% | 0% | 0% | 0% |  |
| CC(=O)OCC(=O)[C@@H]1CCCN1C(=O)[C@@H]1CCCN1C(=O)NCc1ccc(Cl)cc1 [Compound 15, (S)-2-[[(S)-2-(Acetoxyacetyl)-1-pyrrolidinyl]carbonyl]-N(4-chlorophenylmethyl)-1-pyrrolidinecarboxamide] |  |  | 2 nM |  |  |  |  |  |
| COc1ccc(OCC(=O)N2CCC[C@H]2C(=O)N2CCC[C@H]2C(=O)COC(=O)C(C)(C)C)cc1 [Compound 10, (S)-1-[(4-Methoxyphenyl)oxyacetyl]-2-[[(S)-2-(pivaloyloxyacetyl)1-pyrrolidinyl]carbonyl]pyrrolidine] |  |  | 10 nM |  |  |  |  |  |
| CCCCCCCC(=O)N1CCC[C@H]1C(=O)N1CCC[C@H]1C(=O)COC(=O)c1ccccc1 [Compound 13, (S)-2-[[(S)-2-(Benzoyloxyacetyl)-1-pyrrolidinyl]carbonyl]-1-octanoylpyrrolidine] |  |  | 8 nM |  |  |  |  |  |
| COc1ccc(OCC(=O)N2CCC[C@H]2C(=O)N2CCC[C@H]2C(=O)CO)cc1 [Compound 9, (S)-2-[[(S)-2-(Hydroxyacetyl)-1-pyrrolidinyl]carbonyl]-1-[(4methoxyphenyl)oxyacetyl]pyrrolidine] |  |  | 2 nM |  |  |  |  |  |
